# Reference: patent publication US8865911B2, “Compounds and their use as BACE inhibitors” (Astrazeneca AB, priority 2010, dated 2014)
# Tested on: sAPPβ release, SH-SY5Y cells
# Experiment: sAPPβ release assay
# Assay type: cell-based
# Conditions: compounds incubated 17 h, MSD detection
# Protocol: Thaw cells and seed at a conc. of around 10000 cells/well in DMEM/F-12 with Glutamax, 10% FCS and 1% non-essential amino acids to a 384-well tissue culture treated plate, 100 μL cell susp/well. […] The cell medium was removed, followed by addition of 30 μL compound diluted in DMEM/F-12 with Glutamax, 10% FCS, 1% non-essential amino acids and 1% PeSt to a final conc. of 1% DMSO. The compounds were incubated with the cells for 17 h (overnight) at 37° C., 5% CO2. Meso Scale Discovery (MSD) plates were used for the detection of sAPPβ release. MSD sAPPβ plates were blocked in 1% BSA in Tris wash buffer (40 μL/well) for 1 h on shake at r.t. and washed 1 time in Tris wash buffer (40 μL/well). 20 μL of medium was transferred to the pre-blocked and washed MSD sAPPβ microplates, and the cell plates were further used in an ATP assay to measure cytotoxicity. The MSD plates were incubated with shaking at r.t. for 2 h and the media discarded. 10 μL detection antibody was added (1 nM) per well followed by incubation with shaking at r.t. for 2 h and then discarded. 40 μL Read Buffer was added per well and the plates were read in a SECTOR Imager.
Structure (SMILES),IC50,further results
"CCC1=NC2(N=C1N)c1cc(-c3cccc(C#N)c3)ccc1C[C@]21CC[C@@H](OC)CC1 (single isomer, unassigned) [Example 71 Isomer 1, 3-[(1r,4r)-4″-amino-5″-ethyl-4-methoxy-3′H-dispiro-[cyclohexane-1,2′-indene-1′,2″-imidazol]-6′-yl]benzonitrile]",,IC50 (listed as 71 Isomer 1): 5.2 nM
"CCC1=NC2(N=C1N)c1cc(-c3cccc(C#N)c3)ccc1C[C@]21CC[C@@H](OC)CC1 (single isomer, unassigned) [Example 71 Isomer 2, 3-[(1r,4r)-4″-amino-5″-ethyl-4-methoxy-3′H-dispiro-[cyclohexane-1,2′-indene-1′,2″-imidazol]-6′-yl]benzonitrile]",,IC50 (listed as 71 Isomer 2): 763 nM
"CO[C@H]1CC[C@]2(CC1)Cc1ccc(C#CC(C)(C)C)cc1C21N=C(C)C(N)=N1 (single isomer, unassigned; isomer 1) [Example 20h Isomer 1, (1r,4r)-6′-(3,3-dimethylbut-1-yn-1-yl)-4-methoxy-5″-methyl-3′H-dispiro[cyclohexane-1,2′-indene-1′,2″-imidazol]-4″-amine]",277 nM,
"CO[C@H]1CC[C@]2(CC1)Cc1ccc(-c3cc(F)cc(C#N)c3)cc1C21N=C(C)C(N)=N1 (single isomer, unassigned; isomer 1) [Example 76 Isomer 1, 3-[(1r,4r)-4″-amino-4-methoxy-5″-methyl-3′H-dispiro[cyclohexane-1,2′-indene-1′,2″-imidazol]-6′-yl]-5-fluorobenzonitrile]",1.2 nM,
"CO[C@H]1CC[C@]2(CC1)Cc1ccc(-c3cc(Br)cc(C#N)c3)cc1C21N=C(C)C(N)=N1 (single isomer, unassigned; isomer 1) [Example 94 Isomer 1, 3-[(1r,4r)-4″-Amino-4-methoxy-5″-methyl-3′H-dispiro[cyclohexane-1,2′-indene-1′,2″-imidazol]-6′-yl]-5-bromobenzonitrile]",0.17 nM,
